The values below come from patent publication US20210113499A1, “CERAMIDE MIMICS FOR TREATMENT OF ALZHEIMER'S DISEASE” (University of Kentucky Research Foundation, priority 2019, published 2021).

The assay deals with 5×FAD exosomes (Aβ-associated astrosomes). Nature of the assay: Incubation of serum exosomes with ceramide analogs or anti-ceramide IgG; vesicle size by nanoparticle tracking analysis (ZetaView). It counts as biochemical, mouse. Conditions: for Vesicle size reduced: 5×FAD serum exosomes incubated at 37° C. for 16 h with 50 μM ceramide analog, NTA. The protocol:
Sera were isolated from freshly obtained mouse blood. Blood was drawn through heart puncture and was allowed to clot at room temperature for 30 min. Blood was then centrifuged at 1,800×g for 10 min at 4° C. The clear upper layer was transferred to a fresh tube and centrifuged at 3,000×g for 15 min to pellet residual blood cells. Exosomes were extracted using ExoQuick exosome solution (EXOQ; System Biosciences, Inc., Mountain View, Calif., USA) according to the manufacturer protocol. Briefly, one-fourth milliliter aliquots of serum was treated with 67 μl of ExoQuick exosome solution, followed by incubation for 60 min at 4° C. to precipitate total exosomes. Tubes were then centrifuged at 1,500×g for 30 min. Each exosome pellet was resuspended in 100 μl of PBS with 1× Halt™ Protease Inhibitor Cocktail (Thermo Fisher, Massachusetts, USA). In certain experiments exosomes were labeled with PKH67 Green Fluorescent Dye. The exosomes were labeled with PKH67 Green Fluorescent Cell Linker Kit for General Cell Membrane Labelling (Sigma-Aldrich) according to the manufacturer's protocol. Briefly, ExoQuick pellets were resuspended in PBS, 1 ml of Diluent C (CGLDIL, Sigma-Aldrich) was then added to each sample. As a control, 1 ml of Diluent C after adding the same volume of PBS was used. Next, 4 μl of PKH67 dye was added to 1 ml of Diluent C then mixed with the exosomes and the control, PKH67/Diluent C mixture was ultra-centrifuged before being added to samples. The samples were allowed to incubate <5 min on a rotor plate. One ml of 1% BSA was then added to bind excess dye. Samples were ultra-centrifuged at 110,000×g for 70 min, washed and centrifuged again. For exosomes quantification, nanoparticle tracking analysis (NTA) with the ZetaView PMX110 (Particle Metrix) was used. Briefly, exosomes were resuspended in PBS. Two ml of appropriately diluted samples were injected into the ZetaView cell. The instrument was set to obtain NTA measurements at 11 positions, two cycles at each position. […]

With `CCCCCCCCCCCCCCCC(=O)N(CCO)CCO` [B16, N-palmitoyl bisethanolamine], the Vesicle size reduced entry is given as “not”.
For `CCCCCCCC/C=C\CCCCCCCC(=O)NC(CO)CO` [S18, N-oleoyl serinol], the Vesicle size reduced was found to be 17%. Also, the “Aggregates formed by 5×FAD serum astrosomes associated with Aβ (size distribution, FIG. 2D)” value (5×FAD exosomes treated with ceramide analog, particle diameter by NTA) is “reduced”.
